The source of these data is patent US20230053688A1, “METHODS TO ALTER LATENCY IN EBV+ MALIGNANCIES” (Cornell University, priority 2020, published 2023).

The test system of this experiment is LMP1 expression in Kem I cells. The experiment is described as follows: microbe, parasite or virus in culture. The experiment is classed as cell-based, EBV. The following applies: for fold induction at 2.5 µM / fold induction at 1 µM: human gammaherpesvirus 4, 48 h; for Average LMP1 Fold Increase / Replicate 1-LMP1 Fold Increase / Replicate 2-LMP1 Fold Increase: Kem I cells, 48 hours; for Average LMP1 Fold Increase: average of replicates 1 and 2; for Replicate 1-LMP1 Fold Increase / Replicate 2-LMP1 Fold Increase: fold change in LMP1 transcript vs vehicle.

Where [1] appears, read: read-out: Average LMP1 Fold Increase, Kem I cells, 2.5 uM, 48 hours, average of replicates 1 and 2.
The mark [2] stands for this setting: read-out: Replicate 1-LMP1 Fold Increase, Kem I cells, 2.5 uM, 48 hours, fold change in LMP1 transcript vs vehicle.
Where [3] appears, read: read-out: Replicate 2-LMP1 Fold Increase, Kem I cells, 2.5 uM, 48 hours, fold change in LMP1 transcript vs vehicle.
[4] abbreviates: read-out: Average LMP1 Fold Increase, Kem I cells, 1 uM, 48 hours, average of replicates 1 and 2.
Where [5] appears, read: read-out: Replicate 1-LMP1 Fold Increase, Kem I cells, 1 uM, 48 hours, fold change in LMP1 transcript vs vehicle.
[6] abbreviates: read-out: Replicate 2-LMP1 Fold Increase, Kem I cells, 1 uM, 48 hours, fold change in LMP1 transcript vs vehicle.

Structures can show the parent of a compound that is named as a salt. Where two headings read alike, the source gives them in different places.

As for `CCCCN1CCCCC1C(=O)Nc1c(C)cccc1C` (stereo not drawn) [Bupivacaine HCl], the fold induction at 2.5 µM under setting [1] was 0.59, the fold induction at 2.5 µM under setting [2] was 0.64 and the fold induction at 2.5 µM under setting [3] was 0.53.
With `NC1(Cc2ccc(Cl)cc2)CCN(c2ncnc3[nH]ccc23)CC1` [CCT128930], where the note is “2.5 uM”, the “Average LMP1 Fold Increase” value came out at 0.59, the “Replicate 1-LMP1 Fold Increase” value came to 0.40 and the “Replicate 2-LMP1 Fold Increase” value was 0.78.
In the same order, the values of `CC(C)C[C@H](NC(=O)[C@@H](NC(=O)c1cccc(-c2ccccc2)n1)[C@@H](C)O)B(O)O` [CEP-18770 (Delanzomib)] are 96.92, 98.21 and 95.63.
Taken in the same sequence, the figures for `O=C(NC(NC(=S)Nc1ccc(F)c([N+](=O)[O-])c1)C(Cl)(Cl)Cl)C(c1ccccc1)c1ccccc1` (stereo not drawn) [CGK 733] were 0.71, 0.58 and 0.84.
Taken in the same sequence, the figures for `Nc1ncnc2n[nH]c(Nc3ccc(F)cc3)c12` [CGP 57380] were 1.33, 0.81 and 1.86.
Regarding `CCNC(=O)[C@H]1O[C@@H](n2cnc3c(N)nc(NCCc4ccc(CCC(=O)O)cc4)nc32)[C@H](O)[C@@H]1O` [CGS 21680 HCl], the fold induction at 2.5 µM under setting [1] is 0.7, the fold induction at 2.5 µM under setting [2] came to 0.72 and the fold induction at 2.5 µM under setting [3] worked out at 0.68.
As to `O=c1[nH]c2ccc(Cl)cc2c(N[C@@H]2CN3CCC2CC3)c1-c1nc2ccccc2[nH]1` [CHIR-124], where the note is “2.5 uM”, the “Average LMP1 Fold Increase” value is reported as 68.46, the “Replicate 1-LMP1 Fold Increase” value came to 105.57 and the “Replicate 2-LMP1 Fold Increase” value came to 31.35.
`Cc1[nH]c2ccccc2c1CCNC(=O)c1cccs1` [CK-636]: for the setting “2.5 uM”, the “Average LMP1 Fold Increase” value worked out at 1.27, the “Replicate 1-LMP1 Fold Increase” value is listed as 0.69 and the “Replicate 2-LMP1 Fold Increase” value is 1.84.
In the case of `C=CC(=O)Nc1cccc(Nc2nc(Nc3ccc(Oc4ccnc(C(=O)NC)c4)cc3)ncc2F)c1` [CNX-774], under “2.5 uM”, the “Average LMP1 Fold Increase” value amounted to 0.62, the “Replicate 1-LMP1 Fold Increase” value is 0.51 and the “Replicate 2-LMP1 Fold Increase” value was determined as 0.73.
Taken in the same sequence, the figures for `CN(C)C(=O)[C@H](O)[C@H](Cc1ccccc1)NC(=O)c1cc2cc(Cl)ccc2[nH]1` [CP-91149] were 0.64, 0.49 and 0.80.
For the compound `COCCOc1ccc2c(c1)ncn2-c1ccc2cccc(N3CCC(N)CC3)c2n1` [CP-673451], the fold induction at 2.5 µM was 0.49 under setting [1], 0.52 under setting [2] and 0.45 under setting [3].
Regarding `O=C(O)c1cc2cccc([N+](=O)[O-])c2[nH]1` [CRT0044876], under “2.5 uM”, the “Average LMP1 Fold Increase” value turned out to be 0.44, the “Replicate 1-LMP1 Fold Increase” value is given as 0.55 and the “Replicate 2-LMP1 Fold Increase” value came out at 0.33.
Take `O=C(/C=C/c1ccc(O)c(O)c1)OCCc1ccccc1` [Caffeic Acid Phenethyl Ester]: the fold induction at 2.5 µM was found to be 0.46 under setting [1], 0.59 under setting [2] and 0.33 under setting [3].
In the case of `Cc1ccc([C@@H]2O[C@H](CO)[C@@H](O)[C@H](O)[C@H]2O)cc1Cc1ccc(-c2ccc(F)cc2)s1` [Canagliflozin], under “2.5 uM”, the “Average LMP1 Fold Increase” value is listed as 0.63, the “Replicate 1-LMP1 Fold Increase” value is 0.52 and the “Replicate 2-LMP1 Fold Increase” value is recorded as 0.75.
For `CCOc1nc2cccc(C(=O)O)c2n1Cc1ccc(-c2ccccc2-c2nnn[nH]2)cc1` [Candesartan], the fold induction at 2.5 µM was 0.43 under setting [1], 0.34 under setting [2] and 0.52 under setting [3].
Taken in the same sequence, the figures for `C[C@H](CS)C(=O)N1CCC[C@H]1C(=O)O` [Captopril] were 0.62, 0.71 and 0.52.
Turning to `COc1ccccc1OCCNCC(O)COc1cccc2[nH]c3ccccc3c12` (stereo not drawn) [Carvedilol], the fold induction at 2.5 µM is 0.88 under setting [1], 0.89 under setting [2] and 0.87 under setting [3].
In the case of `Cc1ccc(-c2cc(C(F)(F)F)nn2-c2ccc(S(N)(=O)=O)cc2)cc1` [Celecoxib], the fold induction at 2.5 µM under setting [1] came out at 0.62, the fold induction at 2.5 µM under setting [2] was 0.63 and the fold induction at 2.5 µM under setting [3] amounted to 0.62.
Take `COc1ccc([C@]2(C#N)CC[C@@H](C(=O)O)CC2)cc1OC1CCCC1` [Cilomilast]: the fold induction at 2.5 µM runs as follows: under setting [1], 1.06; under setting [2], 0.95; under setting [3], 1.18.
In the same order, the values of `C[C@@H](NCCCc1cccc(C(F)(F)F)c1)c1cccc2ccccc12` [Cinacalcet HCl] are 0.75, 1.17 and 0.34.
As for `Nc1nc(Cl)nc2c1ncn2[C@H]1C[C@H](O)[C@@H](CO)O1` [Cladribine], the fold induction at 1 µM under setting [4] turned out to be 38.7, the fold induction at 1 µM under setting [5] was determined as 71.4 and the fold induction at 1 µM under setting [6] is 6.02.
For the compound `CN1CCC[C@@H]1CCO[C@](C)(c1ccccc1)c1ccc(Cl)cc1` [Clemastine Fumarate], the fold induction at 2.5 µM reads like this: under setting [1], 0.67; under setting [2], 0.64; under setting [3], 0.69.
Taken in the same sequence, the figures for `C=C1C(=O)O[C@@H]2/C=C(\C)CC/C=C(\C)CC[C@@H]12` [Costunolide] were 1.21, 0.79 and 1.62.
As to `CC1(COc2ccc3c(c2)ncn3-c2ccc3cccc(N4CCC(N)CC4)c3n2)COC1` [Crenolanib (CP-868596)], where the note is “2.5 uM”, the “Average LMP1 Fold Increase” value was determined as 4.04, the “Replicate 1-LMP1 Fold Increase” value amounted to 2.56 and the “Replicate 2-LMP1 Fold Increase” value amounted to 5.53.
As to `C[C@H]1COC2=C1C(=O)C(=O)c1c2ccc2c1CCCC2(C)C` [Cryptotanshinone], the fold induction at 2.5 µM came out at 0.85 under setting [1], 0.94 under setting [2] and 0.77 under setting [3].
In the same order, the values of `CC(=O)O[C@]1(C(C)=O)CC[C@H]2[C@@H]3C=C(Cl)C4=CC(=O)[C@@H]5C[C@@H]5[C@]4(C)[C@H]3CC[C@@]21C` [Cyproterone Acetate] are 0.26, 0.27 and 0.24.
As to `Nc1ccn([C@@H]2O[C@H](CO)[C@@H](O)[C@@H]2O)c(=O)n1` [Cytarbine], under “1 uM”, the “Average LMP1 Fold Increase” value is on record as 2.31, the “Replicate 1-LMP1 Fold Increase” value is reported as 2.61 and the “Replicate 2-LMP1 Fold Increase” value is 2.01.
As for `c1ccc(CNc2nc(NCc3ccccc3)c3ccccc3n2)cc1` [DBeQ], where the note is “2.5 uM”, the “Average LMP1 Fold Increase” value is 0.99, the “Replicate 1-LMP1 Fold Increase” value is reported as 0.72 and the “Replicate 2-LMP1 Fold Increase” value is given as 1.25.
In the same order, the values of `CNC(=O)c1cc(Oc2ccc(NC(=O)Nc3cc(C(C)(C)C)nn3-c3ccc4ncccc4c3)c(F)c2)ccn1` [DCC-2036 (Rebastinib)] are 0.38, 0.50 and 0.25.
In the same order, the values of `CC(C)Oc1ccc(-c2cnc3c(-c4ccnc5ccccc45)cnn3c2)cc1` [DMH1] are 0.75, 0.21 and 1.28.
Consider `Cc1ccc2c(=O)c3cccc(CC(=O)O)c3oc2c1C` [DMXAA (Vadimezan)], for which, where the note is “2.5 uM”, the “Average LMP1 Fold Increase” value is 0.87, the “Replicate 1-LMP1 Fold Increase” value turned out to be 0.44 and the “Replicate 2-LMP1 Fold Increase” value is 1.29.
Regarding `CC(C)(C)c1nc(-c2cccc(NS(=O)(=O)c3c(F)cccc3F)c2F)c(-c2ccnc(N)n2)s1` [Dabrafenib (GSK2118436)], where the note is “2.5 uM”, the “Average LMP1 Fold Increase” value is 0.92, the “Replicate 1-LMP1 Fold Increase” value is given as 0.61 and the “Replicate 2-LMP1 Fold Increase” value is reported as 1.22.
Consider `CCC(CC)CC1(C(=O)Nc2ccccc2SC(=O)C(C)C)CCCCC1` [Dalcetrapib (JTT-705, RO4607381)], for which, for the setting “2.5 uM”, the “Average LMP1 Fold Increase” value came to 0.98, the “Replicate 1-LMP1 Fold Increase” value is on record as 0.61 and the “Replicate 2-LMP1 Fold Increase” value came out at 1.34.
`CCOc1ccc(Cc2cc([C@@H]3O[C@H](CO)[C@@H](O)[C@H](O)[C@H]3O)ccc2Cl)cc1` [Dapagliflozin]: the fold induction at 2.5 µM reads like this: under setting [1], 1.01; under setting [2], 0.69; under setting [3], 1.34.
As to `COc1cccc2c1C(=O)c1c(O)c3c(c(O)c1C2=O)C[C@@](O)(C(C)=O)C[C@@H]3O[C@H]1C[C@H](N)[C@H](O)[C@H](C)O1` [Daunorubicin HCl], the fold induction at 2.5 µM runs as follows: under setting [1], 242; under setting [2], 221; under setting [3], 262.
In the case of `COc1cc2nc(N3CCN(C(=O)C4COc5ccccc5O4)CC3)nc(N)c2cc1OC` (stereo not drawn) [Doxazosin Mesylate], the fold induction at 2.5 µM was 0.81 under setting [1], 0.67 under setting [2] and 0.95 under setting [3].
Consider `COc1cccc2c1C(=O)c1c(O)c3c(c(O)c1C2=O)C[C@@](O)(C(=O)CO)C[C@@H]3O[C@H]1C[C@H](N)[C@H](O)[C@H](C)O1` [Doxorubicin], for which the fold induction at 1 µM came to 47 under setting [4], 39.2 under setting [5] and 54.8 under setting [6].
